≈ marks a conversion by molar mass, not a printed value.
How the values were obtained:
physchem [1] = settings: pH 7.4 buffer
physchem [2] = settings: octan-1-ol/water, pH 7.4, LogD7.4

Row | SMILES | solubility thermodynamic (physchem [1]) [µM] | logD (physchem [2])
1 | CCn1c(=O)c2[nH]c(-c3ccccc3)nc2n(CC)c1=O | 2.1 (≈ 0.597 µg/mL) | 3.3
2 | O=C(NCCSCc1ccccc1)c1ccccc1 | 72.4 (≈ 19.6 µg/mL) | 3.3
3 | COCC(=O)N1CCC(n2cc(-c3cnc(N)c(-c4nc5ccccc5o4)c3)cn2)CC1 | 1.9 (≈ 0.822 µg/mL) | 3.4
4 | Nc1ncc(-c2cnn(C3CCN(C(=O)CO)CC3)c2)cc1-c1nc2ccccc2o1 | 2 (≈ 0.837 µg/mL) | 3.2
5 | CN(c1ccnc(Nc2cccc(S(C)(=O)=O)c2)n1)c1cccc2[nH]ncc12 | 13.5 (≈ 5.33 µg/mL) | 3.21
6 | CSCc1cc(N2CCOCC2)nc(-c2ccccc2)n1 | 55 (≈ 16.6 µg/mL) | 3.26
7 | O=C(c1scc2c1CCCC2)N1CCCCC1 | 871 (≈ 217 µg/mL) | 3.16
8 | O=C(c1ccc(F)cc1)C1CCN(C(=O)NCc2ccccc2)CC1 | 10 (≈ 3.4 µg/mL) | 3.15
9 | Oc1nc(-c2ccccc2)c(-c2ccccc2)o1 | 107 (≈ 25.4 µg/mL) | 3.42
10 | COc1ccc(-c2nc3n(c2Br)CCC3)cc1 | 25.1 (≈ 7.36 µg/mL) | 3.3
11 | COc1ccc(-c2csc(N(CCCN3CCOCC3)C(=O)c3ccco3)n2)cc1 | 1.1 (≈ 0.47 µg/mL) | 3.34
12 | Nc1nc(-c2ccc(Cl)cc2)cs1 | 83.2 (≈ 17.5 µg/mL) | 3.31
13 | O=C(CN1CCOCC1)Nc1ccc(-c2cccc3c(=O)cc(N4CCOCC4)oc23)cc1OCC1CC1 | 1.5 (≈ 0.779 µg/mL) | 3.3
14 | O=C(c1ccc(F)cc1)C1CCN(C(=S)Nc2ccc(F)cc2)CC1 | 2.5 (≈ 0.901 µg/mL) | 3.4
15 | COc1ccc(C)c(N(C)c2ccnc(Nc3cc(N4CCOCC4)cc(N4CCOCC4)c3)n2)c1 | 11.5 (≈ 5.64 µg/mL) | 3.18
16 | COc1cc(C(=O)N2CCOCC2)ccc1Nc1ncc(Cl)c(-c2cnc3ccccn23)n1 | 1.6 (≈ 0.744 µg/mL) | 3.4
17 | COc1cc(N2CCN(C(C)=O)CC2)ccc1Nc1ncc(OC)c(-c2cnc3ccccn23)n1 | 1.3 (≈ 0.616 µg/mL) | 3.2
18 | COc1cc(N2CCN(C(C)=O)CC2)ccc1Nc1ncc(Cl)c(-c2cnc3c(N)cccn23)n1 | 0.9 (≈ 0.444 µg/mL) | 3.4
19 | COc1cc(N2CCN(C(C)=O)CC2)ccc1Nc1ncc(Cl)c(-c2cnc3c(CO)cccn23)n1 | 0.5 (≈ 0.254 µg/mL) | 3.1
20 | COc1cc(N2CCN(C(C)=O)CC2)ccc1Nc1ncc(Cl)c(-c2cnc3cc(CO)ccn23)n1 | 22.9 (≈ 11.6 µg/mL) | 3.1
21 | O=C(NCC(=O)N(CCO)c1ccccc1)c1cc2cc(Cl)ccc2[nH]1 | 1.8 (≈ 0.669 µg/mL) | 3.37
22 | CN(C(=O)NCc1ccccc1)C1CCN(CCC(c2ccccc2)c2ccccc2)CC1 | 25.7 (≈ 11.3 µg/mL) | 3.4
23 | CCOC(=O)c1ccc(OCCC2CN(c3ccc(C)nn3)C2)cc1 | 347 (≈ 118 µg/mL) | 3.22
24 | CCOC(=O)c1ccc(OCC2CN(c3ccc(C)nn3)C2)cc1 | 141 (≈ 46.3 µg/mL) | 3.1
25 | COc1cc2ncnc(Nc3cc(NC(=O)c4ccnc(N5CCOCC5)c4)ccc3C)c2cc1OCCN1CCCCC1 | 813 (≈ 486 µg/mL) | 3.35
26 | COc1ccc(-c2c(-c3ccc(O)cc3O)n[nH]c2C)cc1 | 209 (≈ 61.9 µg/mL) | 3.37
27 | Cc1nn(C2CCN(C)CC2)cc1-c1cnc(N)c(-c2nc3ccccc3o2)c1 | 21.4 (≈ 8.31 µg/mL) | 3.4

Row | SMILES | solubility thermodynamic (physchem [1]) [µM] | logD (physchem [2])
28 | CCOc1cc2nccc(Oc3cnc(CC(=O)Nc4n[nH]c(CC)c4C)c(OC)c3)c2cc1OC | 2.2 (≈ 1.08 µg/mL) | 3.29
29 | Cc1cccc(Nc2nnc(C(=O)Nc3ccc(N4CCOCC4)nc3)o2)c1 | 4.8 (≈ 1.83 µg/mL) | 3.42
30 | O=C(Nc1ccc(N2CCOCC2)cc1)c1nnc(NC(=O)C2(c3ccc(Cl)cc3)CCC2)o1 | 66.1 (≈ 31.9 µg/mL) | 3.2
31 | O=C(Nc1ccc(N2CCOCC2)cc1)c1nnc(Nc2ccccc2)o1 | 1.7 (≈ 0.621 µg/mL) | 3.15
32 | Cc1ccc(NC(=O)N2CCN(C[C@@H]3CCCN(C4CC4)C3)CC2)cc1Cl | 575 (≈ 225 µg/mL) | 3.37
33 | COc1cc2ncnc(Nc3cccc(Cl)c3F)c2cc1CN(C)[C@@H](C)C(N)=O | 42.7 (≈ 17.8 µg/mL) | 3.42
34 | CCCSc1nc(NC)ccc1C(=O)N[C@H]1C2CC3CC1C[C@](O)(C3)C2 | 46.8 (≈ 17.6 µg/mL) | 3.27
35 | CCCSc1nc(N2CCOCC2)ccc1C(=O)N[C@H]1C2CC3CC1C[C@](O)(C3)C2 | 479 (≈ 207 µg/mL) | 3.2
36 | COc1cc2ncnc(Nc3ccc(Cl)c(O)c3)c2cc1OC | 1.4 (≈ 0.464 µg/mL) | 3.3
37 | COc1cc2c(Nc3ccc(Cl)cc3F)ncnc2cc1OCCCN1CCOCC1 | 21.9 (≈ 9.79 µg/mL) | 3.4
38 | CN1CCN([C@H]2C[C@@H](c3nc(-c4ccc5ccc(-c6ccccc6)nc5c4)c4c(N)nccn43)C2)CC1 | 204 (≈ 100 µg/mL) | 3.2
39 | C[C@H](CN(C)C(=O)CO)Oc1cccc2ncnc(Nc3ccc(OCc4ccccn4)c(Cl)c3)c12 | 12.6 (≈ 6.4 µg/mL) | 3.22
40 | Cc1ccc(Oc2ccc(Nc3ncnc4[nH]nc(OCCN5CCC(O)CC5)c34)cc2Cl)cn1 | 28.2 (≈ 14 µg/mL) | 3.4
41 | CCn1c2ccccc2c2cc(NC(=O)CN(C)C)ccc21 | 219 (≈ 64.6 µg/mL) | 3.2
42 | COc1cc2ncnc(Nc3ccc(F)c(Cl)c3)c2cc1OCCN1CCN(C)CC1 | 64.6 (≈ 28.8 µg/mL) | 3.3
43 | CS(=O)(=O)n1c2ccccc2c2cc(NC(=O)CCc3ccncc3)ccc21 | 22.9 (≈ 9.01 µg/mL) | 3.4
44 | O=C(CCc1ccncc1)Nc1ccc(C(=O)c2ccccc2)cc1 | 8.1 (≈ 2.68 µg/mL) | 3.4
45 | Oc1cccc2nc(-c3ccccc3)cc(O)c12 | 5 (≈ 1.19 µg/mL) | 3.37
46 | Cn1c(C#N)ccc1-c1cc(F)c2c(c1)C(C)(C)C(=O)N2 | 5.4 (≈ 1.53 µg/mL) | 3.21
47 | CC(C)C[C@H](N[C@@H](c1ccc(-c2ccc(S(C)(=O)=O)cc2)cc1)C(F)(F)F)C(=O)NCC#N | 4 (≈ 1.93 µg/mL) | 3.24
48 | Clc1ccc2c(c1Nc1ccnc(Nc3cc(N4CCOCC4)cc(N4CCOCC4)c3)n1)OCO2 | 30.9 (≈ 15.8 µg/mL) | 3.25
49 | COc1ccc(Nc2nccc(-c3cnc(C)n3C(C)C)n2)cc1 | 209 (≈ 67.6 µg/mL) | 3.43
50 | CCCS(=O)(=O)c1ccc(Nc2nccc(-c3cnc(C)n3C(C)C)n2)cc1 | 138 (≈ 55.1 µg/mL) | 3.37
51 | CNC(=O)c1cc(-c2ccccc2)sc1NC(N)=O | 12 (≈ 3.3 µg/mL) | 3.19
52 | O=C(Nc1ncc(F)s1)[C@H](CC1CCOCC1)c1ccc(S(=O)(=O)C2CC2)cc1 | 214 (≈ 93.8 µg/mL) | 3.19
53 | COc1cc(Nc2cc(Oc3ccc(C)nc3)ccn2)cc(OC)c1OC | 31.6 (≈ 11.6 µg/mL) | 3.21
54 | COc1ccccc1Nc1cc(Oc2cc(C)c(C)nc2-c2ccccn2)ccn1 | 22.9 (≈ 9.12 µg/mL) | 3.37

Further lines, results first:

Row | solubility thermodynamic (physchem [1]) [µM] | logD (physchem [2]) | SMILES
55 | 2.9 (≈ 0.938 µg/mL) | 3.2 | CCn1c2ccccc2c2cc(NC(=O)N3CCOCC3)ccc21
56 | 1.3 (≈ 0.595 µg/mL) | 3.16 | CS(=O)(=O)c1cccc(Nc2nccc(N(CC#N)c3c(Cl)ccc4c3OCO4)n2)c1
57 | 107 (≈ 36 µg/mL) | 3.38 | Cc1nc(CSc2ccc(Cl)cc2)cc(N2CCOCC2)n1
58 | 132 (≈ 37.6 µg/mL) | 3.29 | FC(F)(F)c1nnc2ccc(N3CCCCCC3)nn12
59 | 123 (≈ 30.7 µg/mL) | 3.4 | CC(Nc1ncnc2ccccc12)c1ccccc1 (stereo not given)
60 | 129 (≈ 40.6 µg/mL) | 3.22 | O=C(Cn1cnc2ccccc21)c1ccc(Br)cc1
61 | 126 (≈ 60.4 µg/mL) | 3.3 | COCCOc1cc(Nc2nccc(N(C)c3cc(CO)ccc3C)n2)cc(N2CCOCC2)c1
62 | 66.1 (≈ 31.7 µg/mL) | 3.2 | COc1cc(N2CCN(CCO)CC2)ccc1Nc1ncc(Cl)c(-c2cnc3ccccn23)n1
63 | 282 (≈ 110 µg/mL) | 3.2 | CN(C(=O)C1CCC1)C1CCN(CCC(c2ccccc2)c2ccccc2)CC1
64 | 66.1 (≈ 39.6 µg/mL) | 3.19 | COc1cc2ncnc(Nc3cc(NC(=O)c4ccnc(N5CCOCC5)c4)ccc3C)c2cc1OCCN1CCOCC1
65 | 0.5 (≈ 0.261 µg/mL) | 3.2 | Cc1ccc(NC(=O)c2cccc(N3CCOCC3)c2)cc1NC(=O)c1ccc(OCc2ccncc2)cc1
66 | 22.9 (≈ 10.6 µg/mL) | 3.42 | CCn1cc(NC(=O)Cc2ccc(Oc3ccnc4cc(OC)c(OC)cc34)cc2OC)cn1
67 | 3.3 (≈ 1.09 µg/mL) | 3.2 | COc1ccc(NC(=O)c2nnc(Nc3ccccc3F)o2)cn1
68 | 13.5 (≈ 5.3 µg/mL) | 3.35 | CN1CCC(n2cc(-c3cnc(N)c(-c4nc5ccc(F)cc5o4)c3)cn2)CC1
69 | 41.7 (≈ 17.4 µg/mL) | 3.44 | COc1cc2ncnc(Nc3cccc(Cl)c3F)c2cc1CN(C)[C@H](C)C(N)=O
70 | 1.9 (≈ 0.907 µg/mL) | 3.24 | O=C1COC2(CCN(S(=O)(=O)c3ccc(-c4ccc5cccnc5c4)cc3)CC2)CN1C1CC1
71 | 955 (≈ 279 µg/mL) | 3.36 | CCCSc1ncccc1C(=O)N(C)C1CCCCC1
72 | 219 (≈ 70.1 µg/mL) | 3.1 | C[C@H](NC1=NC(=O)[C@@](C)(C(F)(F)F)S1)c1ccccc1F
73 | 20 (≈ 8.9 µg/mL) | 3.3 | COc1cc2ncnc(Nc3ccc(F)c(Cl)c3)c2cc1OCCCN1CCCCC1
74 | 2.3 (≈ 0.585 µg/mL) | 3.2 | O=c1cc(-c2ccc(O)cc2)oc2cc(O)ccc12
75 | 871 (≈ 433 µg/mL) | 3.3 | CCN(CC)C(=O)c1ccc2[nH]c(-c3cc(C)cc(C)c3)c(CCNCCCCc3ccncc3)c2c1
76 | 38.9 (≈ 11.5 µg/mL) | 3.29 | COc1cc2ncnc(NCc3ccccc3)c2cc1OC
77 | 12.3 (≈ 5.87 µg/mL) | 3.21 | CN1CCC(Oc2cccc3ncnc(Nc4ccc(OCc5cnccn5)c(Cl)c4)c23)CC1
78 | 4 (≈ 1.68 µg/mL) | 3.16 | CC(=O)OCCn1c(Sc2nc3cccc(Cl)c3s2)nc2c(N)ncnc21
79 | 17 (≈ 8.97 µg/mL) | 3.4 | CC(C)C[C@H](NC(=O)N1CCOCC1)C(=O)N[C@H](/C=C/S(=O)(=O)c1ccccc1)CCc1ccccc1
80 | 2.4 (≈ 1.05 µg/mL) | 3.41 | COCCCNS(=O)(=O)c1ccc(Nc2nccc(-c3cnc4ccccn34)n2)cc1

Reference: ChEMBL document CHEMBL3301361, “Experimental in vitro DMPK and physicochemical data on a set of publicly disclosed compounds”
